In patent publication US20080027088A1, “Imidazole-Based Hmg-Coa Reductase Inhibitors” (Warner-Lambert Company, LLC, priority 2004, published 2008):

Assays:
[1] = tested on: ApoE KO mice fed a Western diet; assay: Plasma serum amyloid A by ELISA, cuffed femoral artery study; format: in vivo; details: 4 weeks
Protocol: Plasma lipids and serum amyloid A measurement—Mice were sacrificed by CO2 inhalation and blood was collected through cardiac puncture. Plasma concentrations of total cholesterol and triglyceride were determined enzymatically on a Cobas Mira Plus auto-analyzer using Cholesterol R1 and Triglycerides Reagent methods, respectively (Roche Diagnostics, Indiana, USA). Colormetric changes were measured at 500 nm. Lipoproteins were separated from mouse plasma by fast-protein liquid chromatography utilizing a Superose 6HR column. Cholesterol distribution among lipoproteins was determined by in-line post column analysis (K. A. Kieft, T. M. Bocan and B. R. Krause, J. Lipid Res. 1991; 32:859-66). Serum Amyloid A (SAA) protein in plasma was measured by ELISA according to the manufacturer's instructions (Biosource).
FIG. 5. Lesion Development in the Cuffed Femoral Artery of ApoE KO mice Fed a Western Diet. Mice were anesthetized and the right femoral artery was dissected from its surroundings. A nonconstrictive polyethylene cuff (Portex, 0.40-mm inner diameter, 0.80-mm outer diameter, and 1.5-mm length) was placed looselyaround the right femoral artery. […] Atherosclerotic lesion (black bar) and macrophage size (gray bar) in the femoral artery were quantified by using Image Pro Plus software (FIG. 5A). Plasma serum amyloid A levels were determined by colormetric ELISA (FIG. 5B). […]

[2] = tested on: ApoE KO mice fed a Western diet; assay: Plasma SM/PC ratio (HPLC) and ceramide (LC/MS/MS), 12 weeks; format: in vivo; details: 0.3 mg/kg/day
Description: Analysis of Sphingolipids and Phospholipids by LC/MS and HPLC-Total lipids were extracted by the modified method of Bligh-Dyer extraction (E. G. Bligh and W. J. Dyer, Can. J. Med. Sci. 1959;37:911-917; and D. K. Perry, A. Bielawska and Y. A. Hannun, Methods Enzymol. 2000;312:22-31). A Micromass (Waters Corp., Milford, Mass.) Quattro Ultima tandem quadrupole mass spectrometer with a standard Z-sprayTM ion source, set to electrospray positive ionization mode, with MassLynxTM version 3.5 operating software, was used for all quantitative determinations. Source conditions were typically as follows: capillary 3.5 kV, source temperature 110 degrees C., and desolvation temperature 325 degrees C. […] The following ion transitions were used for quantification: sphingomyelin (704→184 m/z), sphinganine (302→284 m/z), ceramide (566→264 m/z) and psychosine (462→282 m/z) as an internal standard. […] For the quantitative method, the analytical column was a Phenomenex (Torrance, Calif.) Polar-RP (2.0×150 mm, 4 μm) with a […] […] Lipid extracts were analyzed by HPLC and evaporative light scattering detector to determine plasma sphingomyelin and phosphatidylcholine (PC) levels (R. Homan and M.K. Anderson, J. Chromatogr. B. Biomed. Sci. Appl. 1998;708:21-6). […] Plasma concentrations of SM and PC were determined, and SM/PC ratio (FIG. 13A) was calculated using HPLC. […]

CCCCCCC(=O)CCCCCC/C=C/C[C@@H](O)[C@H](O)[C@@](N)(CO)C(=O)O [myriocin]
plasma serum amyloid A lowered [1]: 84% | plasma ceramide levels reduced [2]: 60% | effect on plasma SM/PC ratio ([2]; vs Western diet-fed group): did not affect
